Reference: patent US20230113011A1, “METHODS OF TREATING ILLNESSES CAUSED BY CORONAVIRUS, SWINE FLU AND AVIAN FLU” (CMTx Biotech Inc., priority 2020, published 2023)

Details: in vivo

Question: For `NC(=O)C1=C(O)C[C@@H]2C[C@@H]3Cc4cccc(O)c4C(=O)C3=C(O)[C@]2(O)C1=O` [CMT-3, 6-demethyl-6-deoxy-4-dedimethylaminotetracycline], which “plasma concentrations in humans” value is on record?
Answer: about 1.0 μg/ml
